The test system of experiment [1] is Human immunodeficiency virus. Kind of experiment: Antiviral activity against HIV infected in 1A2 cells assessed as cytoprotective activity after 96 hrs by MTT assay. The experiment is classed as functional, organism-based. The conditions noted are these: Human immunodeficiency virus 1, 1A2, 96 h. For orientation: Tetrazolium dyes change colour on reduction, which living cells bring about.

Experiment [2] addresses Human immunodeficiency virus type 1 integrase (Human immunodeficiency virus 1) (UniProt Q7ZJM1). Briefly: Inhibition of HIV-1 integrase at 100 ug/ml by colorimetry.
The target of experiment [3] is Human immunodeficiency virus type 1 integrase (Human immunodeficiency virus 1, UniProt Q7ZJM1). Kind of experiment: Inhibition of HIV-1 integrase by colorimetry.
Human immunodeficiency virus type 1 integrase, sequence (Q7ZJM1 whole entry): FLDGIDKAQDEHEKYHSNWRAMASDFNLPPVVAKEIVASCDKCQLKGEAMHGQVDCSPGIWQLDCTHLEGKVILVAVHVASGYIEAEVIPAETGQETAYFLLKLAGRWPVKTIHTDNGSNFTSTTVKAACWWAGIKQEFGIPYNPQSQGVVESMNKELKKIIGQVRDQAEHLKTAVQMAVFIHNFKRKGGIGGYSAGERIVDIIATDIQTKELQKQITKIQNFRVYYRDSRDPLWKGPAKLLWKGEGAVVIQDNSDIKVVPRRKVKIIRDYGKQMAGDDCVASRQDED
In experiment [4] the test system is Human immunodeficiency virus. Kind of experiment: Antiviral activity against HIV infected in 1A2 cells assessed as cytoprotective activity at 78 uM after 96 hrs by MTT assay. Type of experiment: functional, organism-based.

Activity calls are given as the source filed them. The calls are words filed in the database; no cut-off is given here. Starred links: 1 amine or outer side, 2 acyl side, 3 side chain; linkers in the order of their positions; H or OH if unused. Non-standard residues stand in square brackets, D forms with d. Residues, ends and D or L forms follow the SMILES beside them. *: point of attachment. X1 = O=C([C@H]1CSC([C@@H](Cc2ccccc2)N[*:1])=N1)[*:2]; Allyl(1,1-Me2) = C=CC(C)(C)*

Human immunodeficiency virus type 1 integrase (Human immunodeficiency virus 1), sequence (Q7ZJM1 as listed by the source): as the sequence (Q7ZJM1 whole entry) above

`O=C(NCCc1ccccc1)NCCc1ccccc1C(=O)NCCc1ccccc1` [MOLLEUREA A]: the IC50 in experiment [1] amounted to 60 µM. In experiment [2], the inhibition result is “inactive”.

With `CC[C@H](C)[C@@H]1NC(=O)[C@H]2CSC(=N2)[C@@H](Cc2ccccc2)NC(=O)[C@@H]2CCCN2C(=O)[C@@H]2CCCN2C(=O)[C@H](C(C)C)NC1=O` [MOLLAMIDE F] (cyclo(IVPP[X1])), the IC50 in experiment [1] is 78 µM; in experiment [3], 39 µM.

`C=CC(C)(C)O[C@H](C)[C@@H]1NC(=O)[C@H]2CSC(=N2)[C@@H](Cc2ccccc2)NC(=O)[C@@H]2CCCN2C(=O)[C@H](CO)NC(=O)[C@H](CC(C)C)NC1=O` (cyclo(LSP[X1]T(Allyl(1,1-Me2)))): in experiment [4], the outcome was inactive. Also, in experiment [2], the inhibition entry was “inactive”.

Turning to `[N-]=[N+]=[N-]` [SODIUM AZIDE], the IC50 in experiment [3] was determined as 46000 µM.

By IC50 is commonly meant the concentration at which inhibition is half-maximal.

These data come from ChEMBL document CHEMBL2086352, “Thiazoline peptides and a tris-phenethyl urea from Didemnum molle with anti-HIV activity” (J Nat Prod, 2012).
